Test results reported in US20040071650A1, “Use of cyclosporin 7-thioamide derivatives for hair growth” (priority 2000, published 2004).
“Also recorded” adds a separate entry of the source.

Tested on: mouse's back
Test: not given
Conditions: comparative experiments on mouse's back; cited from earlier work

| Substance | hair regrowth effect relative to minoxidil |
| --- | --- |
| Cyclosporin A [reference compound] | about 100 times |

Tested on: C57BL/6 mice (female)
Test: Test of hair regrowth effects of 7-thioamide derivatives of cyclosporin on shaved backs of mice
Conditions: C57BL/6 female mice, 100 μl (0.1% w/v) applied on hair removed back once a day for 30 days; vehicle 32
Method: C57BL/6 mice (female), 42˜49 days old, were used in this test.
First of all, mice were removed of hair on their backs using an electric shaver, and weighed. The mice were divided into several groups with weights equally distributed. After one day of adaptation, cyclosporin A and cyclosporin derivatives were applied over the hair removed area once a day per each individual for 30 days. Here, the applied amount of cyclosporin A and derivatives thereof was 100 μl (0.1% w/v). The degree of hair growth were observed by naked eye. The ratio of the area where hairs newly grew to the hair removed area were determined.

| Substance | Area ratio (ratio of the area where hairs newly grew to the hair removed area) |
| --- | --- |
| Cyclosporin D 7-thioamide ([Val]^2-[^7ψ^8 CS—NH] cyclosporin) | 79% |
| Cyclosporin G 7-thioamide ([Nva]^2-[^7ψ^8 CS—NH] cyclosporin) | 88% |
| Cyclosporin B 7-thioamide ([Ala]^2-[^7ψ^8 CS—NH] cyclosporin) | 81% |
| Cyclosporin C 7-thioamide ([Thr]^2-[^7ψ^8 CS—NH] cyclosporin) | 87% |
| Cyclosporin A [reference compound] | 87% |

Same assay, conditions: hair regrowth evaluation of synthesized thioamide derivatives

| Substance | hair regrowth effect (in words) |
| --- | --- |
| Cyclosporin A 4,7-bis(thioamide) [cyclosporin 4,7-bis(tioamide), reference compound] | not all of those derivatives have hair regrowth effect, but only cyclosporin 7-thioamide |
| Cyclosporin A 7-thioamide ([^7ψ^8 CS—NH] cyclosporin A) [cyclosporin 7-thioamide] | does have the hair regrowth effect; also recorded: superior hair regrowth (restoring) effect to any other compounds |
| Cyclosporin A 4-thioamide [cyclosporin 4-thioamide, reference compound] | not all of those derivatives have hair regrowth effect, but only cyclosporin 7-thioamide |
